Experimental data from patent US20120121540A1 (priority 2007, published 2012).

Assay: HCV replicon assay (luciferase reporter, ET cell line)
Assay type: cell-based
Details: Hepatitis C virus, HCV replicon luciferase activity in ET cells
Method in brief: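 ET cells carry a stable luciferase-ubiquitin-neo/NS3-5B subgenomic HCV replicon with adaptive mutations. Compounds (0.1 nM to […], 0.5% DMSO) were added 24 h after plating, and luciferase was read 48-72 h later. EC50 came from 10-point 2-fold dilutions fitted to a Hill equation; TC50 was measured in parallel by WST-1.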

| SMILES | inhibition at 10 µM [%] |
| --- | --- |
| O=C(NCc1cccs1)c1nc2c(C(F)(F)F)cc(-c3ccn[nH]3)cn2c1Cl [Compound 283, 3-Chloro-6-(2H-pyrazol-3-yl)-8-trifluoromethyl-imidazo[1,2-a]pyridine-2-carboxylic Acid(thiophen-2-ylmethyl)-amide] | 87.5 |
| CC(C)c1cc(-c2ccccc2)cn2cc(C(=O)N3CCC(c4cccc(F)c4)C3)nc12 (stereo not shown) [Compound 646, [3-(3-Fluoro-phenyl)-pyrrolidin-1-yl]-(8-isopropyl-6-phenyl-imidazo[1,2-a]pyridin-2-yl)-methanone] | 42.4 |
| O=C(NCc1ccccc1C(F)(F)F)c1nc2c(C(F)(F)F)cc(-c3ccco3)cn2c1Cl [Compound 179, 3-Chloro-6-furan-2-yl-8-trifluoromethyl-imidazo[1,2-a]pyridine-2-carboxylic acid 2-trifluoromethyl-benzylamide] | 37.5 |
| O=C(NCC1CCCO1)c1cc2cc(-c3ccccc3)cc(I)n2n1 (stereo not shown) [Compound 131, 7-Iodo-5-phenyl-pyrazolo[1,5-a]pyridine-2-carboxylic Acid (tetrahydro-furan-2-ylmethyl)-amide] | 49.2 |
| O=C(NCc1cccs1)c1nc2c(C(F)(F)F)cc(-c3cc[nH]c3)cn2c1Cl [Compound 279, 3-Chloro-6-(1H-pyrrol-3-yl)-8-trifluoromethyl-imidazo[1,2-a]pyridine-2-carboxylic Acid(thiophen-2-ylmethyl)-amide] | 95.8 |
| CC1(C)CCCN1C(=O)c1nc2c(C(F)(F)F)cc(-c3ccoc3)cn2c1Cl [Compound 330, (3-Chloro-6-furan-3-yl-8-trifluoromethyl-imidazo[1,2-a]pyridin-2-yl)-(2,2-dimethyl-pyrrolidin-1-yl)-methanone] | 34.4 |
| COC(=O)[C@H]1[C@@H](c2ccccc2)CCN1C(=O)c1nc2c(C(F)(F)F)cc(-c3ccoc3)cn2c1Cl (stereo in doubt) [Compound 227, 1-(3-Chloro-6-furan-3-yl-8-trifluoromethyl-imidazO [1,2-a]pyridine-2-carbonyl)-3-phenyl-pyrrolidine-2-carboxylic Acid Methyl Ester] | 49.2 |
| O=C(NCc1cccs1)c1nc2c(C(F)(F)F)cc(-c3cn[nH]c3)cn2c1Br [Compound 376, 3-Bromo-6-(1H-pyrazol-4-yl)-8-trifluoromethyl-imidazo[1,2-a]pyridine-2-carboxylic Acid(thiophen-2-ylmethyl)-amide] | 98.8 |
| O=C(NCc1cccs1)c1nc2c(C(F)(F)F)cc(-c3ccccc3)nc2[nH]1 [Compound 103, 5-Phenyl-7-trifluoromethyl-3H-imidazo[4,5-b]pyridine-2-carboxylic acid (thiophen-2-ylmethyl)-amide] | 54.7 |
| CC(=O)c1ccc(C2=CCN(C(=O)c3nc4c(C(F)(F)F)cc(-c5ccoc5)cn4c3Cl)CC2)s1 [Compound 585, 1-{5-[1-(3-Chloro-6-furan-3-yl-8-trifluoromethyl-imidazo[1,2-a]pyridine-2-carbonyl)-1,2,3,6-tetrahydro-pyridin-4-yl]-thiophen-2-yl}-ethanone] | 93.2 |
| C[C@@H](NC(=O)c1nc2c(C(F)(F)F)cc(-c3ccoc3)cn2c1Cl)c1ccccc1 [Compound 411, 3-Chloro-6-furan-3-yl-8-trifluoromethyl-imidazo[1,2-a]pyridine-2-carboxylic Acid (1-phenyl-ethyl)-amide] | 74.8 |
| CS(=O)(=O)NC1CN(C(=O)c2nc3c(C(F)(F)F)cc(-c4cn[nH]c4)cn3c2Cl)C1 [Compound 521, N-{1-[3-Chloro-6-(1H-pyrazol-4-yl)-8-trifluoromethyl-imidazo[1,2-a]pyridine-2-carbonyl]-azetidin-3-yl}-methanesulfonamide] | 72.8 |
| CS(=O)(=O)NC1CN(C(=O)c2nc3c(C(F)(F)F)cc(-c4cn[nH]c4)cn3c2Br)C1 [Compound 522, N-{1-[3-Bromo-6-(1H-pyrazol-4-yl)-8-trifluoromethyl-imidazo[1,2-a]pyridine-2-carbonyl]-azetidin-3-yl}-methanesulfonamide] | 88.6 |
